Laboratory results reported in patent US8211883B2, “Topical delivery of phthalocyanines” (priority 2004, dated 2012).
Counter-ions that a name gives are not always drawn.

Legend:
[1] = test system: human skin keratome biopsies; experiment: Penetration of topically applied PcIV and salts into human skin, confocal fluorescence microscopy; type: in vitro ADME
Experimental: Human skin absorption of PcIV was analyzed by fluorescence confocal microscopy. PcIV fluorescence, upon activation with a HeNe laser at 633 nm, was visualized using a 650 long pass filter. Briefly, 0.4 mm thick human keratomes were removed from the gluteal region of healthy volunteers and divided into 1.5 cm×1.5 cm squares of skin. Upon application of PcIV to the epidermis in a vehicle of ethanol and propylene glycol, visualization of penetration of PcIV was achieved by fluorescence. Pc 4 was then prepared as PcIV-pyruvate and PcIV-HCl and applied in the same vehicle as Pc 4 to the epidermis. Three concentrations, namely, 0.1 mg/mL, 0.05 mg/mL, and 0.01 mg/mL were tested per PcIV formulation. Skin was incubated at 37° C. for 1, 2, and 4 hours, along with vehicle controls. […] Maximum PcIV fluorescence was detectable using laser transmission of 3% for the 0.1 mg/mL and 30% for the 0.01 mg/mL. Both PcIV.pyruvate and PcIV.HCl however could be visualized with a laser transmission of 2-3% for the 0.1 mg/mL and 7-9% for the 0.01 mg/mL concentrations.
The ability of PcIV and the newly prepared PcIV salts (HCl and pyruvate) to penetrate into the epidermis of keratome derived biopsies was examined. The time course of penetrance as well as the effect of dose of the PcIV compounds were evaluated. PcIV and the PcIV.HCl and PcIV.pyruvate salts were resuspended in ethanol (100%, 1 part PcIV, 499 parts ethanol) and then diluted to final concentrations in a 30% Propylene Glycol 70% Ethanol mixture.
Keratome biopsies of normal skin were obtained from normal volunteers after written consent according to UHHS IRB protocol # 05-95-03. To date, seven experiments have been performed. The range of age for volunteers was 20-40 yrs. Individuals represented Fitzpatrick skin types between I-III. Skin biopsies were held in PBS following the keratome procedure until processed for PcIV Application (less than 1 hr). The keratome skin samples (1.5 cm^2) were overlayed onto sterile gauze in 80 mm tissue culture petri dishes epidermal side down. PcIV compounds were then applied to the corners of the sterile gauze and allowed to “wick” through the gauze and contact the epidermis of the skin for the indicated times. Following the incubation, the tissue was removed from the gauze and washed three times in phosphate buffered saline and held, in PBS, until analysis by confocal microscopy. Confocal images were acquired using a 20×N.A. 0.5 water immersion objective on a Zeiss 510 confocal microscope. PcIV fluorescence was elicited using a 633 nm wavelength for excitation, and collected with a 633 nm dichroic mirror and 650 nm long-pass filter.

[2] = test system: Chinese hamster V79-379 lung fibroblasts; experiment: Uptake of phthalocyanines into V79 cells
Experimental: Chinese hamster V79-379 lung fibroblasts were grown in monolayer culture in McCoy's 5A medium (Gibco Laboratories, Grand Island, N.Y.) augmented with 10% calf serum and buffered with 20 mM HEPES (pH 7.4).
Total uptake was determined by scraping the phthalocyanine-treated monolayer, collecting the cells on a glass-fiber filter, and extracting the phthalocyanine in ethanol, as previously described by Ramakrishnan, et al., 1989. (Ramakrishnan, N., M. E. Clay, M. F. Horng, A. R. Antunez, & H. H. Evans, “DNA Lesions and DNA Degradation in Mouse Lymphoma L5178Y Cells After Photodynamic Treatment Sensitized by Chloroaluminum Phthalocyanine”, Photochem. Photobiol, in press, 1989). The amount of drug was determined by absorption at 674 nm and expressed relative to the number of cells, as measured in a Coulter cell counter on an aliquot of the cell population. Controls included cells not treated with drug, medium alone, and drug-containing medium without cells.
The cells were treated with 1 μM AlPcCl (from Eastman Kodak, Rochester, N.Y.) or with phthalocyanine compositions I-VI (0.5-1.0 μM final concentration in the medium) for 18 hours by adding the appropriate volume of a 1.0 mM stock solution in dimethylformamide (DMF) to the culture medium. The growth medium was replaced with 4 mL Hank's balanced salt solution (HBSS), and the cells were irradiated. The light source was a 500 W tungsten-halogen lamp located approximately 29 inches below the surface of a glass exposure tray. The visible light administered to the cells was filtered to allow passage of only that portion of the visible spectrum above 600 nm (Lee Primary red filter No. 106, Vincent Lighting, Cleveland, Ohio). The fluence rate was approximately 0.074 kJ/m^2/s at the level of the cell monolayer.
V79 cells Chinese hamster lung fibroblasts were cultured using the cell culture methods described above. The phthalocyanines listed in table 2 were added to the cultures typically at concentrations of 1 μM, 2 μM, and/or 4 μM and incubated for 18 hours, after which aliquots of the cells were counted and other aliquots were collected on a glass fiber filter. When the filters were dry, the phthalocyanines were extracted into ethanol and the absorption determined at the peak wavelength, usually 668 nm. Values were converted to nmoles taken up by 10^6 cells, using an extinction coefficient of 2.93×10^5.

[3] = test system: Chinese hamster V79-379 lung fibroblasts; experiment: Clonogenic cell survival of V79 cells after photodynamic treatment; type: cell-based; details: for CF10(AIPcCI)/CF10 (Pc) / F10(AIPcCI)/F10 (Pc): 1.0 μM; for CF10(AIPcCI)/CF10 (Pc): CF10 = product of intracellular concentration and fluence reducing survival to 10%; for F10(AIPcCI)/F10 (Pc): F10 = fluence reducing cell survival to 10%
Experimental: Cells were irradiated at a density of approximately 2×10^6 per 25 cm^2 flask. Immediately after irradiation, the cell monolayer was treated with trypsin, and appropriate aliquots were plated in triplicate to give 100 to 200 colonies in each 10-cm Petri dish. Cell survival was determined by the ability of the cells to form colonies containing at least 50 cells. The response of cells treated with 1 μM AlPcCl and light was compared in each experiment.
Photocytotoxicity of the phthalocyanines compounds I to VI was also assessed by clonogenic assay (Table 1, FIG. 1). In all experiments, 1 μM AlPcCl was included for comparison purposes. From the survival curves (FIG. 1), the fluence reducing the cell survival to 10% (F10) was obtained. The ratio of the F10 for AlPcCl and the F10 for the test compound is recorded in Table 1. Compounds I and II appear to be nearly as efficient photosensitizers as AlPcCl, while compound IV (assayed at half the concentration) was almost twice as efficient as the standard AlPcCl. […] However, in spite of the low efficiency of compound V in inhibiting cell growth, survival measurements were made for this compound, because it was taken up into V79 cells somewhat more efficiently than compounds III and VI.
In order to take differences in cellular uptake into consideration in the assessment of the relative efficiency of these phthalocyanines as photosensitizers of V79 cells, the survival data were replotted against the product of intracellular phthalocyanine concentration and light fluence (FIG. 2). From these curves, the product of intracellular concentration and light fluence reducing survival to 10% (CF10) was obtained, and comparisons of the values for AlPcCl and the test compounds are recorded in Table 1. By this and the other criteria, compound IV appears to be the most efficient photosensitizer. However, when consideration is given to the lesser cell uptake of compound V, it appears to be about as strong a photosensitizer as compound IV.
Using the cell culture methods described above, V79 cells Chinese hamster lung fibroblasts were treated with either 0.5 or 1.0 μM of the phthalocyanines listed in Table 3. About 18 hours thereafter, the cells were irradiated with increasing doses of 675 nm broad band red light from a 500 W tungsten-halogen lamp fitted with a 600 nm high pass filter, to determine the light dosage that would kill 90% of the phthalocyanine treated cells. Where 90% of the cells were not killed, the maximum percent of cells killed were determined, (expressed as % survival) and the related light dosage recorded.

[4] = test system: Chinese hamster V79-379 lung fibroblasts; experiment: Growth delay of V79 cultures after phthalocyanine and red light; type: cell-based; details: V79 cells; for Growth Delay (12 kj/m^2), Efficiency Relative to 1 μM (AlPcCl): 18 hours, 12 kJ/m^2 red light
Experimental: At the time of light exposure, there were approximately 1.5×10^5 cells per 25 cm^2 flask. Following irradiation, the HBSS was replaced by 10 mL of fresh complete growth medium, and the cultures were returned to the 37° C. incubator. At various times before and after irradiation, duplicate cultures were trypsinized and counted. Controls included untreated cells and cells treated with light alone or drug alone. In addition, in each experiment, the drug to be tested was compared to a standard treatment, i.e. 1 μM AlPcCl for 18 hours followed by 12 kJ/m^2 light.
The inhibition of V79 culture growth was measured during a three day period following red light irradiation (12 kJ/m^2) of phthalocyanine-pretreated cells. With each of the active compounds, as well as with AlPcCl, there was an initial decrease in cell density, as dead cells became detached from the monolayer. Thereafter, the cell number per flask increased, as living cells grew and divided. The time for the cell density to recover to the level at the time of light exposure was considered the growth delay. […] The ratio of the growth delay for the test photosensitizer and the growth delay for AlPcCl measured in the same experiment is recorded in Table 1. There was less inhibition of culture growth when cells were exposed to compounds III, V, or VI as expected from the poor cellular uptake of these drugs.

[5] = test system: RIF-1 (radiation-induced fibrosarcoma) tumors; experiment: PDT of RIF-1 implanted tumors; type: in vivo, C3H/HeN mice; set-up: key to Tumor Responses at 24 hours: complete: no evidence of any tumor mass in any animal; only the scar from the photodynamic therapy was evident.; near complete: evidence of any tumor mass in four or five animals; only some tumor mass in one or two animals.; substantial: a significant tumor shrinkage occurred in all animals. In some animals the tumor response was complete, yet in others the response was not complete.; moderate: some tumor shrinkage was evident in some animals. In animals with some tumor shrinkage, scar formation was evident.; slight: some tumor decrease occurred in one or two mice; details: 1 mg/kg in corn oil, 675 nm
Experimental: The relative effectiveness at reducing tumor volume of selected phthalocyanine compounds at a given dosage was compared in vivo. RIF-1, i.e., radiation-induced fibrosarcoma, tumors were implanted into the backs of C3H/HeN mice. One tumor was implanted per mouse. Each of the phthalocyanine compounds listed in Table 7 was sonicated and vortexed in corn oil to produce a suspension. When the tumors reached […] in diameter and 2-3 mm in thickness, each mouse received 1 mg/kg in 0.1 mL of the corn oil, of the phthalocyanine suspension. For comparison, select mice received a conventional photosensitizer; either 5 mg/kg of chloroaluminum phthalocyanine tetrasulfonate, herein also referred to as “AlPcTS” in phosphate buffered saline or 5 mg/kg of Photofrin®-II in 5% dextrose. Twenty-four hours after the photosensitizers were administered, the tumors were irradiated with visible radiation delivered by an argon-pumped dye laser. The mice that received a phthalocyanine photosensitizer received light having a wavelength of 675 nm and the mice that received the Photofrin® II photosensitizer received light having a wavelength of 630 nm. Each tumor received 135 J/cm^2 of radiation. Tumor size was measured every day using calipers. The initial tumor volume was 50±10 mm^3. Tumor volume was calculated according to the hemiellipsoid model by the formula: V=½(4π)/3×(½×(w/2))×h
• complete—no evidence of any tumor mass in any animal; only the scar from the photodynamic therapy was evident. • near complete—evidence of […] in four or five animals; only some tumor mass in one or two animals. • substantial—a significant tumor shrinkage occurred in all animals. In some animals the tumor response was complete, yet in others the response was not complete. • moderate—some tumor shrinkage was evident in some animals. In animals with some tumor shrinkage, scar formation was evident. • slight—some tumor decrease occurred in one or two mice.

[6] = test system: L5178Y cells; experiment: Induction of apoptosis (DNA ladder) in L5178Y cells after PDT; type: cell-based, Mouse; details: for C × F Ld90, Minimum Demonstrated Condition to Induce Apoptosis: product of concentration and fluence
Experimental: The cells were used while in exponential growth. Stock solutions of either 0.5 or 1 mM of PcIV, PcXII, PcX, PcXVIII were prepared in dimethylformamide unless otherwise indicated and added to the 10 mL medium at a rate of 1 μL per mL. After allowing 18 hours for uptake of the phthalocyanine into the cells, the flasks containing the cultures were placed on a glass exposure tray above a 500-W tungsten-halogen lamp. The exposure tray was fitted with a 600-nm high-pass filter. Flasks were exposed to various fluences of red light (up to 30 kJ/m^2) at a fluence rate of approximately 74 W/m^2). After irradiation, the cells were collected by centrifugation.
The aliquots were plated in sufficient numbers to produce 50-200 colonies. The dishes were kept in an incubator at 37° C. in an atmosphere of 5% CO2 and 95% air for 10-14 days to allow viable cells to form colonies. Colonies were counted by eye. […] The plating efficiencies of the treated cells are normalized to the plating efficiencies of control cells in each experiment.
Cells were treated with various concentrations of the compounds listed in the table and various light fluences. DNA gels were prepared and examined for the characteristic “ladder” pattern of DNA fragments. For each Pc, the minimum total PDT dose tested (calculated as the product of the minimum phthalocyanine concentration and the minimum fluence) which produced visible DNA fragments is recorded. […] PcXVIII was also added at 0.5 and 1.0 μM.

CN(C)CCC[Si](C)(C)O[Si]1(O)n2c3c4ccccc4c2N=C2N=C(N=c4c5ccccc5c(n41)=NC1=NC(=N3)c3ccccc31)c1ccccc12 (stereo not shown) [PcIV-HCl, HOSiPcOSi(CH3)2(CH2)3N(CH3)2(HCl)]
effect of salt formulation on penetration through the skin [1]: does not hinder the penetration

[Cl][Al]1[n]2c3c4ccccc4c2N=C2N=C(N=c4c5ccccc5c([n]41)=NC1=NC(=N3)c3ccccc31)c1ccccc12 [AlPcCl, chloroaluminum phthalocyanine, reference compound]
Uptake, Efficiency Relative to 1 μM (AlPcCl) ([2]; V79 cells, 1.0 μM, 18 hours): 1.0
uptake ([2]; V79 cells, 1 μM, mean±S. D., 25 determinations): 0.723±0.172 nmole/10^7 cells
CF10(AIPcCI)/CF10 (Pc) [3]: 1.0
F10(AIPcCI)/F10 (Pc) [3]: 1.0
growth delay ([4]; 1 μM for 18 hours and 12 kj/m^2 light): approximately 24 hours
Growth Delay (12 kj/m^2), Efficiency Relative to 1 μM (AlPcCl) [4]: 1.0

CN(C)CCC[Si](C)(C)[O][Al]1[n]2c3c4ccccc4c2N=C2N=C(N=c4c5ccccc5c([n]41)=NC1=NC(=N3)c3ccccc31)c1ccccc12 [Compound I, AlPcOSi(CH3)2(CH2)3N(CH3)2]
CF10(AIPcCI)/CF10 (Pc) [3]: 0.51
F10(AIPcCI)/F10 (Pc) [3]: 0.94
Growth Delay (12 kj/m^2), Efficiency Relative to 1 μM (AlPcCl) [4]: 2.1

C[Si](C)(CCCCNS(C)(=O)=O)O[Si]1(O)n2c3c4ccccc4c2N=C2N=C(N=c4c5ccccc5c(n41)=NC1=NC(=N3)c3ccccc31)c1ccccc12 (stereo not shown) [IX, HOSiPcOSi(CH3)2(CH2)4NHSO2CH3]
Uptake Into V79 Cells, 1 μM ([2]; 1 μM, 18 hours): 0.1 ± 0.1 n Moles/10^6 cells
Uptake Into V79 Cells, 4 μM ([2]; 4 μM, 18 hours): 1.8 ± 0.8 n Moles/10^6 cells
n Moles/10^6 Cells/μM (composite uptake value) ([2]; V79 cells, average of all data, asterisk: listed value is for 1 μM, average would be higher): 0.3 n Moles/10^6 Cells/μM
Maximum Effect (% survival at kj/m^2) ([3]; 0.5 μM, at 9 kj/m^2): 44% at 9
Tumor Responses at 24 hours ([5]; 135 J/cm^2, light 24 h after dosing): near complete
Doubling Time of Initial Tumor Volume after PDT ([5]; 135 J/cm^2, controls 4 days): 11 days
Fluence, Minimum Demonstrated Condition to Induce Apoptosis ([6]; 0.3 μM): 12.0 kJ/m^2
C × F Ld90, Minimum Demonstrated Condition to Induce Apoptosis ([6]; 0.3 μM): 3.6 kJ/m^2
Fluence, Minimum Demonstrated Condition to Induce Apoptosis ([6]; 0.5 μM): 8.0 kJ/m^2
C × F Ld90, Minimum Demonstrated Condition to Induce Apoptosis ([6]; 0.5 μM): 4.0 kJ/m^2
Fluence, Minimum Demonstrated Condition to Induce Apoptosis ([6]; 1.0 μM): 12.0 kJ/m^2
C × F Ld90, Minimum Demonstrated Condition to Induce Apoptosis ([6]; 1.0 μM): 12.0 kJ/m^2
